From patent publication US10934295B2, “Antimicrobials and methods of making and using same” (BIOVERSYS AG, priority 2016, dated 2021) come the findings set out here.

Experiment [1] has as its system Staphylococcus aureus (S. aureus) 11540 strain. Nature of the experiment: standard microdilution assay, minimum inhibitory concentration (MIC). In kind it is cell-based. As for the experimental part:
(§1) The in vitro activity of the compounds of the present disclosure can be determined. Antimicrobial testing is typically performed to determine the minimum inhibitory concentration (MIC). Minimum inhibitory concentrations (MICs) are determined by the microdilution method in a final volume of 100 μl according to protocols outlined by The Clinical and Laboratory Standards Institute (CLSI). Performance standards for reference strains are assessed within the same experimental design to maintain quality control. See, for example, Clinical Laboratory Standards Institute: Methods for dilution antimicrobial susceptibility tests for bacteria that grow aerobically M7-A8. Approved Standard-Eighth Edition. Wayne, Pa.: CLSI; December 2008; and Clinical Laboratory Standards Institute: Performance Standards for Antimicrobial Susceptibility Testing M100-S20; Approved Standard-Twentieth Edition. Wayne, Pa.: CLSI; June 2010. The compounds of the present disclosure were tested for antimicrobial activity. The Compounds 1-32 were run against Eschericia colt (E. coli) strain ATCC25922 and against Staphylococcus aureus (S. aureus) 11540 strain using a standard microdilution assay to determine minimum inhibitory concentrations (MICs). […] It will be recognized by one skilled in the art that the compounds can be assessed against other bacterial organisms and that the presentation of data for activity against Eschericia colt and Staphylococcus aureus are illustrative and in no way is intended to limit the scope of the present disclosure. The compounds of the present disclosure can be assayed against a range of other microorganisms depending upon the performance activity desired to be gathered. Furthermore, the “+” and “−” representation and the selection of a cutoff value of 16 micrograms/mL is also illustrative and in no way is intended to limit the scope of the present disclosure.
(In general: Dilution methods test growth across graded concentrations, often in twofold steps.)

For a further experiment, the system named is E. coli strain ATCC25922. Described as above. In kind it is cell-based. Particulars: Escherichia coli. As for the experimental part: as §1

Broadly, the MIC is the least concentration at which growth counts as inhibited. Read a low MIC as a more susceptible organism. For `C[C@H](N)CCCc1cc(Cl)c(F)c(-c2cc3cn(-c4ccc([C@H]5CNC[C@@H](CCNC(=N)N)N5)cc4)c(=O)nc3[nH]2)c1` [Compound 17], the MIC (in experiment [1]; in the experiment with E. coli strain ATCC25922) was not above 16 µg/mL each time.
Consider `C[C@H](N)CCCc1cc(Cl)c(F)c(-c2cc3cn(-c4ccc(N5CCNC(CCNC(=N)N)C5)cc4)c(=O)nc3[nH]2)c1` (stereo partly drawn) [Compound 7], for which the MIC (in experiment [1]; in the experiment on E. coli strain ATCC25922) was not above 16 µg/mL in each case.
For the compound `C[C@H](N)CCCc1cc(Cl)c(F)c(-c2cc3cn(-c4ccc(C(=O)N[C@H](CCNC(=N)N)CNC(=N)N)cc4)c(=O)nc3[nH]2)c1` [Compound 19], the MIC (in experiment [1]; in the experiment on E. coli strain ATCC25922) was not above 16 µg/mL in each case.
Turning to `CNC(=O)Cc1cc(-n2cc3cc(-c4cc(CCC[C@H](C)N)cc(Cl)c4F)[nH]c3nc2=O)ccc1CN[C@@H](C)CCNC(=N)N` [Compound 2], the MIC (in experiment [1]; against E. coli strain ATCC25922) was not above 16 µg/mL throughout.
With `C[C@H](N)CCCc1cc(Cl)c(F)c(-c2cc3cn(-c4ccc([C@H]5CNC[C@H](CCNC(=N)N)N5)cc4)c(=O)nc3[nH]2)c1` [Compound 18], the MIC (in experiment [1]; against E. coli strain ATCC25922) was not above 16 µg/mL in each case.
Take `CSc1cc(-n2cc3cc(-c4cc(CCC[C@H](C)N)cc(Cl)c4F)[nH]c3nc2=O)ccc1CO[C@H](CCNC(=N)N)CNC(=N)N` [Compound 31]: the MIC (in experiment [1]; against E. coli strain ATCC25922) was not above 16 µg/mL in each case.
Take `C[C@H](N)CCCc1cc(Cl)c(F)c(-c2cc3cn(-c4ccc([C@@H]5CNC[C@H](CCNC(=N)N)O5)cc4)c(=O)nc3[nH]2)c1` [Compound 5]: the MIC (in experiment [1]; in the experiment with E. coli strain ATCC25922) was not above 16 µg/mL in each case.
In the case of `C[C@H](N)CCCc1cc(Cl)c(F)c(-c2cc3cn(-c4cc(F)c(CO[C@H](CCNC(=N)N)CNC(=N)N)c(F)c4)c(=O)nc3[nH]2)c1` [Compound 56], the MIC (in experiment [1]; against E. coli strain ATCC25922) was not above 16 µg/mL in each case.
As for `C[C@H](N)CCCc1cc(Cl)c(F)c(-c2cc3cn(-c4ccc(CO[C@H](CCNC(=N)N)CNC(=N)N)c(F)c4)c(=O)nc3[nH]2)c1` [Compound 30], the MIC (in experiment [1]; against E. coli strain ATCC25922) was not above 16 µg/mL each time.
As for `C[C@H](N)CCCc1cc(Cl)c(F)c(-c2cc3cn(-c4ccc(C(=O)N[C@@H](CN)CCNC(=N)N)cc4)c(=O)nc3[nH]2)c1` [Compound 25], the MIC (in experiment [1]; with E. coli strain ATCC25922) was not above 16 µg/mL throughout.
As to `C=C[C@@H](CCNC(=N)N)NC(=O)c1ccc(-n2cc3cc(-c4cc(CCC[C@H](C)N)cc(Cl)c4F)[nH]c3nc2=O)cc1` [Compound 20], the MIC (in experiment [1]; in the experiment with E. coli strain ATCC25922) was not above 16 µg/mL each time.
Turning to `C[C@H](N)CCCc1cc(Cl)c(F)c(-c2cc3cn(-c4ccc([C@@H](NCCCNC(=N)N)C(F)(F)F)cc4)c(=O)nc3[nH]2)c1` [Compound 27], the MIC (in experiment [1]; in the experiment on E. coli strain ATCC25922) was not above 16 µg/mL each time.
Consider `C[C@H](NCCCNC(=N)N)c1ccc(-n2cc3cc(-c4cc(CCC[C@@H](N)C(F)(F)F)cc(Cl)c4F)[nH]c3nc2=O)cc1` [Compound 26], for which the values for the MIC (in experiment [1]; in the experiment on E. coli strain ATCC25922) were not above 16 µg/mL and more than 16 µg/mL, respectively.
For `CSC[C@@H](CCNC(=N)N)NCc1ccc(-n2cc3cc(-c4cc(CCC[C@H](C)N)cc(Cl)c4F)[nH]c3nc2=O)cc1` [Compound 24], in that order: not above 16 µg/mL and not above 16 µg/mL.
For `C[C@H](N)CCCc1cc(Cl)c(F)c(-c2cc3cn(-c4ccc(C(=O)N[C@H](CCNC(=N)N)CNc5ncc[nH]5)cc4)c(=O)nc3[nH]2)c1` [Compound 15], in that order: not above 16 µg/mL and not above 16 µg/mL.
For `C[C@H](N)CCCc1cc(Cl)c(F)c(-c2cc3cn(-c4ccc([C@@H](NCCCNC(=N)N)C(F)F)cc4)c(=O)nc3[nH]2)c1` [Compound 28], in that order: not above 16 µg/mL and not above 16 µg/mL.
Consider `C[C@H](N)CCCc1cc(Cl)c(F)c(-c2cc3cn(-c4ccc(CN[C@@H](C)CCNC(=N)N)c(N(C)C)c4)c(=O)nc3[nH]2)c1` [Compound 11], for which the minimal inhibitory concentration (MIC) (in experiment [1]; in the experiment on E. coli strain ATCC25922) was not above 16 µg/mL in each case.
With `C[C@H](N)CCCc1cc(Cl)c(F)c(-c2cc3cn(-c4ccc(CN[C@@H](C)CCNC(=N)N)c(S(C)(=O)=O)c4)c(=O)nc3[nH]2)c1` [Compound 6], the MIC (in experiment [1]; with E. coli strain ATCC25922) was not above 16 µg/mL each time.
Regarding `C[C@H](N)CCCc1cc(Cl)c(F)c(-c2cc3cn(-c4ccc([C@@H]5CNC[C@@H](CCNC(=N)N)O5)cc4)c(=O)nc3[nH]2)c1` [Compound 14], the MIC (in experiment [1]; in the experiment on E. coli strain ATCC25922) was not above 16 µg/mL each time.
On to `C[C@H](N)CCCc1cc(Cl)c(F)c(-c2cc3cn(-c4ccc(CN[C@@H](C)CCNC(=N)N)c(CC(=O)O)c4)c(=O)nc3[nH]2)c1` [Compound 1], for which the MIC in experiment [1] is not above 16 µg/mL; with E. coli strain ATCC25922, more than 16 µg/mL.
For `COCCOCc1cc(-n2cc3cc(-c4cc(CCC[C@H](C)N)cc(Cl)c4F)[nH]c3nc2=O)ccc1CN[C@@H](C)CCNC(=N)N` [Compound 12], in that order: not above 16 µg/mL and not above 16 µg/mL.
For `C[C@H](N)CCCc1cc(Cl)c(F)c(-c2cc3cn(-c4ccc(CN[C@@H](C)CCNC(=N)N)c(N5CCOCC5)c4)c(=O)nc3[nH]2)c1` [Compound 16], in that order: not above 16 µg/mL and not above 16 µg/mL.
For `C[C@H](N)CCCc1cc(Cl)c(F)c(-c2cc3cn(-c4ccc([C@@H]5CNC[C@@H](CCNC(=N)N)N5)cc4)c(=O)nc3[nH]2)c1` [Compound 23], in that order: not above 16 µg/mL and not above 16 µg/mL.
Turning to `C[C@H](N)CCCc1cc(Cl)c(F)c(-c2cc3cn(-c4ccc([C@@H]5CNC[C@H](CCNC(=N)N)N5)cc4)c(=O)nc3[nH]2)c1` [Compound 22], the MIC (in experiment [1]; against E. coli strain ATCC25922) was not above 16 µg/mL in each case.
Turning to `C[C@H](N)CCCc1cc(Cl)c(F)c(-c2cc3cn(-c4ccc(C(=O)N[C@H](CCNC(=N)N)CNc5ccccn5)cc4)c(=O)nc3[nH]2)c1` [Compound 21], the MIC (in experiment [1]; in the experiment with E. coli strain ATCC25922) was not above 16 µg/mL in each case.
Consider `C[C@H](N)CCCc1cc(Cl)c(F)c(-c2cc3cn(-c4ccc(C(=O)N[C@@H](C)CCNC(=N)N)cc4)c(=O)nc3[nH]2)c1` [Compound 9], for which the MIC (in experiment [1]; against E. coli strain ATCC25922) was not above 16 µg/mL in each case.
As to `C[C@H](N)CCCc1cc(Cl)c(F)c(-c2cc3cn(-c4ccc(CN[C@@H](C)CCNC(=N)N)c([N+](=O)[O-])c4)c(=O)nc3[nH]2)c1` [Compound 8], the MIC (in experiment [1]; in the experiment with E. coli strain ATCC25922) was not above 16 µg/mL throughout.
For `C[C@H](N)CCCc1cc(Cl)c(F)c(-c2cc3cn(-c4ccc(C(=O)N[C@@H](CO)CCNC(=N)N)cc4)c(=O)nc3[nH]2)c1` [Compound 10], the MIC (in experiment [1]; with E. coli strain ATCC25922) was not above 16 µg/mL throughout.
As to `COc1cc(-n2cc3cc(-c4cc(CCC[C@H](C)N)cc(Cl)c4F)[nH]c3nc2=O)ccc1CO[C@H](CCNC(=N)N)CNC(=N)N` [Compound 32], the MIC (in experiment [1]; against E. coli strain ATCC25922) was not above 16 µg/mL in each case.
`N=C(N)NCC[C@@H]1CSC[C@@H](c2ccc(-n3cc4cc(-c5cc(CCC[C@@H](N)C6CC6)cc(Cl)c5F)[nH]c4nc3=O)cc2)N1` [Compound 29]: the MIC (in experiment [1]; in the experiment with E. coli strain ATCC25922) was not above 16 µg/mL in each case.
